According to patent US20230002361A1, “2H-INDAZOLE DERIVATIVES AND THEIR USE IN THE TREATMENT OF DISEASE” (BIOGEN MA INC., priority 2019, published 2023):

What was measured:
[1] = target: T1, IRAK4 (Homo sapiens, UniProt Q9NWZ3); test: IRAK4 MSD Biochemical Assay (1 mM ATP, 2 h); details: room temperature, read-out: IRAK4 MSD Biochemical Assay (1 mM ATP, 2 h) IC50
T1 construct: with 0.1 nM IRAK4, 1.6 μM of biotinylated peptide substrate and 10 μM ATP
T1 sequence (Q9NWZ3 1-460): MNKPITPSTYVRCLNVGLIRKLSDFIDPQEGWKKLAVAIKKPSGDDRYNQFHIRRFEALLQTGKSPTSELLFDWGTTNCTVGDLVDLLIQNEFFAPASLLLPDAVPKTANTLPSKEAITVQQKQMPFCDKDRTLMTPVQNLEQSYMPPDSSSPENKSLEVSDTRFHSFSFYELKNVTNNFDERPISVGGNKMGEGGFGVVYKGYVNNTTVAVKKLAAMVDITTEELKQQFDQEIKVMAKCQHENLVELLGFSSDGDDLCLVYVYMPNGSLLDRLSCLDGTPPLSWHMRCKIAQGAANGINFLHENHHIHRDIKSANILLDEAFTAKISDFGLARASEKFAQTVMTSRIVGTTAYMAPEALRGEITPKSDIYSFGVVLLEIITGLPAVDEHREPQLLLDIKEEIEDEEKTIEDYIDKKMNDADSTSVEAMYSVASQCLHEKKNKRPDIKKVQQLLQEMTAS
In short: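 Run with 1 mM ATP and […] for 2 h, then quenched with EDTA, pH 8. The phosphorylated biotinylated peptide was captured on streptavidin plates and detected with anti-phospho-threonine antibody plus Sulfo-Tag secondary by MSD electrochemiluminescence.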

[2] = target: T2, human MDR1 transfected MDCK cells (Homo sapiens, UniProt P08183); test: MDR1-MDCK assay (efflux ratio); assay type: in vitro ADME; details: 1 μM compound, 120 minutes incubation
T2 construct: host or cells: MDCK cells
T2 sequence (P08183 whole entry): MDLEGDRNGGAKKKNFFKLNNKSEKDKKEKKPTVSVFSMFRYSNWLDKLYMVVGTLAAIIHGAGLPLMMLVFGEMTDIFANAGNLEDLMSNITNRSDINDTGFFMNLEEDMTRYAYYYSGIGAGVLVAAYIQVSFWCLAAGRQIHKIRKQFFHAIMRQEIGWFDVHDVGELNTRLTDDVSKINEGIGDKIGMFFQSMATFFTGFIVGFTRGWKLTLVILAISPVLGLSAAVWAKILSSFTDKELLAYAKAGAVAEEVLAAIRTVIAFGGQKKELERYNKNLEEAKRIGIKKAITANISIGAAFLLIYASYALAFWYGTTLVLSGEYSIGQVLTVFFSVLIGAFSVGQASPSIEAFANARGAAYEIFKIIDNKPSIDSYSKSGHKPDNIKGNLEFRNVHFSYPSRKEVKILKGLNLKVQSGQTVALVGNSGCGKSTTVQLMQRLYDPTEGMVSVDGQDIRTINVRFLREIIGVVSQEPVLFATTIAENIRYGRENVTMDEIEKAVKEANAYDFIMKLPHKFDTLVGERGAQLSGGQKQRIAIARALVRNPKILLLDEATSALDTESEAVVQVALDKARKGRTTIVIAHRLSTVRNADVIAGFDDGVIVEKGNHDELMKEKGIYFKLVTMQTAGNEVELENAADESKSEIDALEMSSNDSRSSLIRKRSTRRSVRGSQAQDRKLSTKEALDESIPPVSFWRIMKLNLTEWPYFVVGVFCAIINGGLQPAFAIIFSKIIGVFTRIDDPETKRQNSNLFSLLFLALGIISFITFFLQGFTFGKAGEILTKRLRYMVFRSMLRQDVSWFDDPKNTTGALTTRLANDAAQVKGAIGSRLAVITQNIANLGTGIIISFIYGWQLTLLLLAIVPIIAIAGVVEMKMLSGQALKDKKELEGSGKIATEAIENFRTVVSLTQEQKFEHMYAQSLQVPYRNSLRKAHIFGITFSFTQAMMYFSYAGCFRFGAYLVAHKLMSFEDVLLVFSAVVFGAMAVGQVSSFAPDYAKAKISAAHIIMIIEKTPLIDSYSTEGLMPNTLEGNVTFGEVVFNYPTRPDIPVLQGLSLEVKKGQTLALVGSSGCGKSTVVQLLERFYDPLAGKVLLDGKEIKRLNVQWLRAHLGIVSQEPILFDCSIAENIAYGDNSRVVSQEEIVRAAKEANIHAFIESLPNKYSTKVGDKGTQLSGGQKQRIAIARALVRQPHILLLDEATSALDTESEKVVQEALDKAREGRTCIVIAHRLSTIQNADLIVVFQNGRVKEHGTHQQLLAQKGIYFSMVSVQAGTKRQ
In short: (§1)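 Human MDR1-transfected MDCK monolayers, cultured 7 days on transwell inserts with TEER checked, were dosed with compound at 1 μM in HBSS-HEPES. Transport was measured in both A-B and B-A directions. Efflux ratio came from the directional permeabilities, with mass balance also calculated.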

[3] = target: T1, IRAK4; test: IRAK4 MSD Biochemical Assay (10 μM ATP, 2 h); details: 0.1 nM IRAK4, 2 h, room temperature
Protocol: The 2-hour 10 μM ATP Biochemical Assay employs a MesoScale Detection (MSD) format. The kinase reaction is based on the IRAK4 phosphorylation of a biotin labeled peptide (IRAK1 activation loop sequence 360-389).
The kinase reaction in 30 μl is carried out in wells of a 384 well polypropylene assay plate, with 0.1 nM IRAK4, 1.6 μM of biotinylated peptide substrate and 10 μM ATP in 50 mM Hepes, pH 7.5, 60 mM NaCl, 5 mM MgCl2, 0.25 mM MnCl2, 2 mM DTT, 0.01% BSA, 0.01% BSA, and 1% DMSO (from compound DMSO stocks), for 2 hour at room temperature. The activity is quenched with 11 μl of 70 mM EDTA, pH 8.
To detect the phosphorylated biotinylated peptide substrate, 30 μl of the quenched reaction mixture is added to equivalent wells of a 384 well streptavidin coated MesoScale plate (Meso Scale Discovery #L21SA-1). After a 1 hour incubation of the plate for 1 hour at room temperature with gentle mixing, the plate wells are washed 3 times with 50 mM Tris, pH 7.5, 150 mM NaCl, 0.02% Tween-20.
A 25 μl volume of 1:500 anti-P-Threonine Rabbit polyclonal Antibody plus 1:500 Goat-anti-Rabbit Sulfo Tag Antibody (Meso Scale Discovery R32AB-1) in 50 mM Tris, pH 7.5, 150 mM NaCl, 0.02% Tween-20 plus 2% BSA is then added to each well. After a 1-hour incubation of the plate for 1 hour at room temperature with gentle mixing, the plate wells are washed, 3 times with 50 mM Tris, pH 7.5, 150 mM NaCl, 0.02% Tween-20. A 40 μl volume of 2×MSD Read Buffer (Meso Scale Discovery R92TC-1) is added to each well, and the plate is read immediately in an MSD Plate Reader (Meso Scale Discovery).

[4] = target: T3, MDR1 (P-gp) (Homo sapiens, UniProt P08183); test: MDR1-MDCK assay (efflux ratio); assay type: in vitro ADME; details: human, MDCK-MDR1, 1 μM compound, 120 minutes incubation; read-out: MDR1-MDCK Efflux Ratio; (B-A/A-B)
T3 construct: host or cells: MDCK cells
T3 sequence (P08183 whole entry): as above
In short: as §1

With “6-Ethoxy-N-(2-methoxypyridin-3-yl)-2-(1-methyl-2-oxabicyclo[2.1.1]hexan-4-yl)-2H-indazole-5-carboxamide tfifluoroacetate [Example 85]” the IC50 [1] was 0.9 nM and the “MDR1-MDCK Efflux Ratio; (B-A/A-B)” value [2] was 0.8.

With `Cc1cnc2c(NC(=O)c3cc4cn(C5CCCOC5)nc4nc3OC3CCC3)cnn2c1` (single isomer, unassigned) [Example 132] the IC50 [1] was 0.1 nM and the “MDR1-MDCK Efflux Ratio; (B-A/A-B)” value [2] was 2.0.

For `Cc1ccn2ncc(NC(=O)c3cc4cn(C5CCCOC5)nc4nc3OC3CCC3)c2n1` (single isomer, unassigned) [Example 134], the IC50 [1] was 1 nM and the “MDR1-MDCK Efflux Ratio; (B-A/A-B)” value [2] was 2.1.

In the case of `COc1cnc2c(NC(=O)c3cc4cn([C@@]56CC[C@@](C)(C5)OC6)nc4cc3OC(C)C)cnn2c1` (single isomer, unassigned) [Example 135], the IC50 [1] is reported as 0.6 nM and the “MDR1-MDCK Efflux Ratio; (B-A/A-B)” value [2] is reported as 2.3.

`COc1cnc2c(NC(=O)c3cc4cn([C@]56CC[C@](C)(C5)OC6)nc4cc3OC(C)C)cnn2c1` (single isomer, unassigned) [Example 136] was tested, and the IC50 [1] was 1.4 nM and the “MDR1-MDCK Efflux Ratio; (B-A/A-B)” value [2] was 2.3.

In the case of `CC12CCC(n3cc4cc(C(=O)Nc5cnn6cccnc56)c(OC5CCC5)cc4n3)(CO1)C2` (single isomer, unassigned) [Example 138], the IC50 [1] is reported as 0.2 nM and the “MDR1-MDCK Efflux Ratio; (B-A/A-B)” value [2] is reported as 1.7.

`COCCn1cc2cc(C(=O)Nc3cccc(C(F)F)n3)c(OC)cc2n1` [Example 10, N-(6-(difluoromethyl)pyridin-2-yl)-6-methoxy-2-(2-methoxyethyl)-2H-indazole-5-carboxamide] showed an IC50 [3] of 26 nM and an efflux ratio at 120 min, 1 μM [4] of 0.9.

With `COc1cc2nn(CC3CCOC3)cc2cc1C(=O)Nc1cccc(C(F)F)n1` (stereo not shown) [Example 11, N-(6-(difluoromethyl)pyridin-2-yl)-6-methoxy-2-((tetrahydrofuran-3-yl)methyl)-2H-indazole-5-carboxamide] the IC50 [1] was 6.8 nM, the IC50 [3] was 2 nM and the efflux ratio at 120 min, 1 μM [4] was 1.1.

`COc1cc2nn(CCC(C)(C)OC)cc2cc1C(=O)Nc1cccc(C(F)F)n1` [Example 12, N-(6-(difluoromethyl)pyridin-2-yl)-6-methoxy-2-(3-methoxy-3-methylbutyl)-2H-indazole-5-carboxamide] showed an IC50 [1] of 5.5 nM, an IC50 [3] of 2 nM and an efflux ratio at 120 min, 1 μM [4] of 1.4.

`Cn1ccc(NC(=O)c2cc3cn(C45CCC(C)(CC4)OC5)nc3cc2OC2CCC2)n1` [Example 140, 6-cyclobutoxy-N-(1-methyl-1H-pyrazol-3-yl)-2-(1-methyl-2-oxabicyclo[2.2.2]octan-4-yl)-2H-indazole-5-carboxamide] gave an IC50 [1] of 0.9 nM and an efflux ratio at 120 min, 1 μM [4] of 0.9.
